Source: patent publication US20140113898A1, “BISARYLSULFONE AND DIALKYLARYLSULFONE COMPOUNDS AS CALCIUM CHANNEL BLOCKERS” (Zalicus Pharmaceuticals Ltd., priority 2010, published 2014)

Experiments:
Assay type in all cases: cell-based
CaV2.2 = target: T1, CaV2.2 (Homo sapiens, UniProt Q00975); test: High-throughput CaV2.2/Kir2.3 FLIPR fluorescent assay; conditions: Table 4; Fluo-4 FLIPR; closed or inactivated state not stated; read-out: FLIPR data CaV2.2
T1 construct: expressed in transfected cells; host or cells: unnamed doxycycline-inducible cell line
Summary of the method: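 IC50 was derived by logistic fitting of the FLIPR Fluo-4 signal recorded over 3 min after a 130 mM KCl stimulus. Before stimulation, cells (channel expression induced with doxycycline, 29 °C on assay day) were kept in pH 7.4 buffer with 2 mM KCl for the closed-state format or 12.5 mM KCl for the inactivated-state format.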

CaV3.2 = target: T2, CaV3.2 (Homo sapiens, UniProt O95180); test: High-throughput CaV3.2/Kir2.3 T-type FLIPR fluorescent assay; conditions: Table 4; Fluo-4 FLIPR; closed or inactivated state not stated
T2 construct: expressed in transfected cells; host or cells: unnamed doxycycline-inducible cell line
Summary of the method: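 Doxycycline-induced cells loaded with Fluo-4, preincubated 20 min at 29°C with compound in 2 mM KCl (closed-state) or 7.6 mM KCl (inactivated-state) buffer, pH 7.4. Calcium entry triggered by 12 mM or 14.5 mM KCl respectively; fluorescence read 3 min by FLIPR, IC50 from logistic fit.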

CaV3.1 = target: T3, CaV3.1 (Homo sapiens, UniProt O43497); test: High-throughput CaV3.1 T-type FLIPR fluorescent assay; conditions: Table 4; Fluo-4 FLIPR
T3 construct: expressed in transfected cells; host or cells: unnamed doxycycline-inducible cell line
Summary of the method: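 Doxycycline-induced CaV3.1 cells were loaded with Fluo-4 at 29 °C and pre-incubated with compound for 20 min at 29 °C in low-Ca2+ buffer (0.001 mM CaCl2, pH 7.2). Calcium entry was triggered by buffer containing 6 mM CaCl2, and Fluo-4 fluorescence was recorded on FLIPR for 3 min. IC50 came from logistic fits.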

T2 sequence (O95180 whole entry): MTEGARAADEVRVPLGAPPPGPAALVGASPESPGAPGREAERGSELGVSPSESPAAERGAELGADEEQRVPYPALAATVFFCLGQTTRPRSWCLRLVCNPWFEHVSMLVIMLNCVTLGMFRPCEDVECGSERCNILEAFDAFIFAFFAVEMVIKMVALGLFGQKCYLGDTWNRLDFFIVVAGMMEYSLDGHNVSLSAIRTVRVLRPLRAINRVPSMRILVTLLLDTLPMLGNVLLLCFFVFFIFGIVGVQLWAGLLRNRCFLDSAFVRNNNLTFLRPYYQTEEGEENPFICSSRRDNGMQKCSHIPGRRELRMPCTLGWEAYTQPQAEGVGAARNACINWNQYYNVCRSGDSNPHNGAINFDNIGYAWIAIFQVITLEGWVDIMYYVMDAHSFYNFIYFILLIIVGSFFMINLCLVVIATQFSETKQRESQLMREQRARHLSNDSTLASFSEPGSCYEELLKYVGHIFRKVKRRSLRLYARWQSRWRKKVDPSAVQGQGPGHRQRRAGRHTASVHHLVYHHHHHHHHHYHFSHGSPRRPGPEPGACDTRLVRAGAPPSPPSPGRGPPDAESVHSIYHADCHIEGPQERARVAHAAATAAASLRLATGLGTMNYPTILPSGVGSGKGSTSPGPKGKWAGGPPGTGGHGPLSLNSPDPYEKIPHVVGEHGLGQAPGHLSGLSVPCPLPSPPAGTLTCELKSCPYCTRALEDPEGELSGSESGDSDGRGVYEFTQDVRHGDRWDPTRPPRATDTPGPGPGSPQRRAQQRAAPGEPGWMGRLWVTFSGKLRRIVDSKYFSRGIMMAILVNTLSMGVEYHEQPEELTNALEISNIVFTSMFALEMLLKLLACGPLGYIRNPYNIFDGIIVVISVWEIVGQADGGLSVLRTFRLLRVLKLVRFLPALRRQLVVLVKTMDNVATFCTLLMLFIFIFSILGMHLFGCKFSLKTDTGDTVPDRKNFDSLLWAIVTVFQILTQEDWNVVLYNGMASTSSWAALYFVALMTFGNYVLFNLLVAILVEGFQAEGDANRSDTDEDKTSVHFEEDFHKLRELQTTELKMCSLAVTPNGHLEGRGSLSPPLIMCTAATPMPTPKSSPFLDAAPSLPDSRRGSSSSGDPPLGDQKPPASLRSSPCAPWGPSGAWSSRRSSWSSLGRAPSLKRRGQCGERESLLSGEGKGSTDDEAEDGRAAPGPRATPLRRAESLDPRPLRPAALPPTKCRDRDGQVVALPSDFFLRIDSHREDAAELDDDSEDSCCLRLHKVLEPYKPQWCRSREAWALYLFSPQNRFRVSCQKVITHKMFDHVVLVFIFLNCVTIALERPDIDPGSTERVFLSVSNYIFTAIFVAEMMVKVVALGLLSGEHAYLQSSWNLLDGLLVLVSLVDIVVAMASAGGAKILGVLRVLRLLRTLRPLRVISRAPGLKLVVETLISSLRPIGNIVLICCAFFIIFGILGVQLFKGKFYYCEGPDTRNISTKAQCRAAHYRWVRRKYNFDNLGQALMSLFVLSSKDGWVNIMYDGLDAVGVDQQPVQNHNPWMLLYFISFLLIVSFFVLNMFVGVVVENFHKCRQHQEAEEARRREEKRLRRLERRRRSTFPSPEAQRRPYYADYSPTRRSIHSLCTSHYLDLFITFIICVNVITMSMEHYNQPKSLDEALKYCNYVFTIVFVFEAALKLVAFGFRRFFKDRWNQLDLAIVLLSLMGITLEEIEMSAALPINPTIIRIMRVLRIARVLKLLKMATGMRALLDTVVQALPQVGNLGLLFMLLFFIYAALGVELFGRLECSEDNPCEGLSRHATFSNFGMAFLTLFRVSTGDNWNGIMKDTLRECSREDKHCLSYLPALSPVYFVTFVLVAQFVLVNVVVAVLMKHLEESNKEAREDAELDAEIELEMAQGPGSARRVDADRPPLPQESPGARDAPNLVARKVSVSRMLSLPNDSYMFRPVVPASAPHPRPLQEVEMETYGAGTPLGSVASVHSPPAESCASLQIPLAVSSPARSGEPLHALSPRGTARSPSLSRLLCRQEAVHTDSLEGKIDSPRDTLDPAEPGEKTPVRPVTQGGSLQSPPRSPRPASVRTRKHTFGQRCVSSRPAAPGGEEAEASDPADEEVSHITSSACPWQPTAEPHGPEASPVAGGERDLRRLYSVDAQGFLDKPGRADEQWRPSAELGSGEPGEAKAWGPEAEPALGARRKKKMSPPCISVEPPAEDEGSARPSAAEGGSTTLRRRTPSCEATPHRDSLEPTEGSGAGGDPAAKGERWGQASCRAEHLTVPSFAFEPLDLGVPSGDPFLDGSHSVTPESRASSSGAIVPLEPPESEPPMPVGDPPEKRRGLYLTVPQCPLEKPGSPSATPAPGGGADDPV
T3 sequence (O43497 whole entry): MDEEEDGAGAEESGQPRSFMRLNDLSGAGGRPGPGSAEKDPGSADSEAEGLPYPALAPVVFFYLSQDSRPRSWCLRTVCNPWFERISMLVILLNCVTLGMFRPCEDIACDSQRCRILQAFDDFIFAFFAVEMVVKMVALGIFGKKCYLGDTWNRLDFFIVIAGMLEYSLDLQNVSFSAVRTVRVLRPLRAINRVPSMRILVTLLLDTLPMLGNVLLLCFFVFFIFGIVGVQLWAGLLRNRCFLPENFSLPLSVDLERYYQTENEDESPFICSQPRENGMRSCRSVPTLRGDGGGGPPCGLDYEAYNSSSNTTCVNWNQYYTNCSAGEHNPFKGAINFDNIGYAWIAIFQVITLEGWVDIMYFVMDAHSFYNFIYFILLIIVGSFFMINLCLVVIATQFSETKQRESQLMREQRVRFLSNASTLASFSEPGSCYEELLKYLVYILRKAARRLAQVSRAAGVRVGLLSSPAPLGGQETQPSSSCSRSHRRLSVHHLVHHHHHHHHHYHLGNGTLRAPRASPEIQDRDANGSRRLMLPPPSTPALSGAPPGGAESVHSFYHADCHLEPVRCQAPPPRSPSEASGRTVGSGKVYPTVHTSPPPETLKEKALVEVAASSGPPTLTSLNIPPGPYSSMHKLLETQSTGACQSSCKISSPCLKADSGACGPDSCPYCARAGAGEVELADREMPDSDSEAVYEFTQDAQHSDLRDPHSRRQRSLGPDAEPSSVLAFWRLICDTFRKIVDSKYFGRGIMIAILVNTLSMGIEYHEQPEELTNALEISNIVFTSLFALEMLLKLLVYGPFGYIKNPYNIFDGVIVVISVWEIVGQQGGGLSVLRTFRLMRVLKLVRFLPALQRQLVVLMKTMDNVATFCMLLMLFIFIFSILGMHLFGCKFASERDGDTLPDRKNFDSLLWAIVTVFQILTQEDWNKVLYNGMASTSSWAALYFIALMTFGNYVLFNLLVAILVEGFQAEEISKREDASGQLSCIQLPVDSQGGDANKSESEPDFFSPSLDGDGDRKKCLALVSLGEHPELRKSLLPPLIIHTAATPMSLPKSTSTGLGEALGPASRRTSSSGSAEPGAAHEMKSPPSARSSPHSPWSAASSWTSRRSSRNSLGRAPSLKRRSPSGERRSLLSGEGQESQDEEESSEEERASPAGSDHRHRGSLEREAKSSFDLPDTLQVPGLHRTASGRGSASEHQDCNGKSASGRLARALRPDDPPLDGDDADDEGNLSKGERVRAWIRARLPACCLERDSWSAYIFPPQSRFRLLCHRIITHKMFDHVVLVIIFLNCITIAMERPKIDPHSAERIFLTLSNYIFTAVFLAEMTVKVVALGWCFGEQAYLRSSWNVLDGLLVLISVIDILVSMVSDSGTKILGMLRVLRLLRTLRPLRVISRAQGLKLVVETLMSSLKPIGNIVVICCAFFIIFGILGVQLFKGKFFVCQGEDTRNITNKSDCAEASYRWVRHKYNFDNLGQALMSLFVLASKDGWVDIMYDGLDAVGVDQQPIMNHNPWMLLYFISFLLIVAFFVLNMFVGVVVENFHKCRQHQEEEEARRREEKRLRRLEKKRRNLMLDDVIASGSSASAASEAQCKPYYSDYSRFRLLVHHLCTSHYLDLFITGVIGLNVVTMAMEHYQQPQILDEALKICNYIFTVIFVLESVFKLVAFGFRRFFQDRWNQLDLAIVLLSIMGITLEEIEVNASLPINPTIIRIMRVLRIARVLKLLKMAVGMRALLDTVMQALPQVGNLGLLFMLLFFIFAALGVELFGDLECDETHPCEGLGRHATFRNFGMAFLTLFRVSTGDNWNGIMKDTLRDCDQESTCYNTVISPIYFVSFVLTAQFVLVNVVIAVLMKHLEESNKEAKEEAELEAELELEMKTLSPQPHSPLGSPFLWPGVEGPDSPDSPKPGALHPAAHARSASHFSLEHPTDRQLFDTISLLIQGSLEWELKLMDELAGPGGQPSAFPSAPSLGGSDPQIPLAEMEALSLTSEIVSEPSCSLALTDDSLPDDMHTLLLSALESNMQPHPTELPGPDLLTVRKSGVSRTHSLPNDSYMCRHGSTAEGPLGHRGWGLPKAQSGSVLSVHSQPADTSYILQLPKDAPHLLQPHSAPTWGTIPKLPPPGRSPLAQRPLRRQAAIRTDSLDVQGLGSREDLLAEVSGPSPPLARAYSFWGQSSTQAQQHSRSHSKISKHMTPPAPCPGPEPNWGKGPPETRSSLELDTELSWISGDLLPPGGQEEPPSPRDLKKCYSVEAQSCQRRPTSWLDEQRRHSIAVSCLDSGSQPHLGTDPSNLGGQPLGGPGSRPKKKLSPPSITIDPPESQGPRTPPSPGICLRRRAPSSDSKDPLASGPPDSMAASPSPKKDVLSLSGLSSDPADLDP

SMILES | IC50 (CaV2.2) [nM] | IC50 (CaV3.2) [nM] | IC50 (CaV3.1) [nM]
O=C(NCc1cccc(S(=O)(=O)c2cccc(C(F)(F)F)c2)c1)c1ccnn1CC(F)(F)F [Compound 29, 1-(2,2,2-trifluoroethyl)-N-(3-((3-(trifluoromethyl)phenyl)sulfonyl)benzyl)-1H-pyrazole-5-carboxamide] | 340 | 600 | 1850
O=C(NCc1ccccc1S(=O)(=O)c1cccc(C(F)(F)F)c1)c1cc(F)cc(Cl)c1 [Compound 37, 3-chloro-5-fluoro-N-(2-((3-(trifluoromethyl)phenyl)sulfonyl)benzyl)benzamide] | 680 | 1610 | 1420
O=C(NCc1ccc(S(=O)(=O)c2cccc(C(F)(F)F)c2)cc1)c1ccnn1CC(F)(F)F [Compound 12, 1-(2,2,2-trifluoroethyl)-N-(4-((3-(trifluoromethyl)phenyl)sulfonyl)benzyl)-1H-pyrazole-5-carboxamide] | 630 | 590 | 2290
Cn1nc(C(F)(F)F)cc1C(=O)NCc1ccccc1S(=O)(=O)c1cccc(C(F)(F)F)c1 [Compound 41, 1-methyl-3-(trifluoromethyl)-N-(2-((3-(trifluoromethyl)phenyl)sulfonyl)benzyl)-1H-pyrazole-5-carboxamide] | 380 | 1390 | 920
